Peptide text beside a SMILES is read from it. * marks the point of attachment. AMC = Cc1cc(=O)oc2cc(N*)ccc12
Target: T1, SIRT1 (Homo sapiens, UniProt Q96EB6)
T1 sequence (Q96EB6 1-747): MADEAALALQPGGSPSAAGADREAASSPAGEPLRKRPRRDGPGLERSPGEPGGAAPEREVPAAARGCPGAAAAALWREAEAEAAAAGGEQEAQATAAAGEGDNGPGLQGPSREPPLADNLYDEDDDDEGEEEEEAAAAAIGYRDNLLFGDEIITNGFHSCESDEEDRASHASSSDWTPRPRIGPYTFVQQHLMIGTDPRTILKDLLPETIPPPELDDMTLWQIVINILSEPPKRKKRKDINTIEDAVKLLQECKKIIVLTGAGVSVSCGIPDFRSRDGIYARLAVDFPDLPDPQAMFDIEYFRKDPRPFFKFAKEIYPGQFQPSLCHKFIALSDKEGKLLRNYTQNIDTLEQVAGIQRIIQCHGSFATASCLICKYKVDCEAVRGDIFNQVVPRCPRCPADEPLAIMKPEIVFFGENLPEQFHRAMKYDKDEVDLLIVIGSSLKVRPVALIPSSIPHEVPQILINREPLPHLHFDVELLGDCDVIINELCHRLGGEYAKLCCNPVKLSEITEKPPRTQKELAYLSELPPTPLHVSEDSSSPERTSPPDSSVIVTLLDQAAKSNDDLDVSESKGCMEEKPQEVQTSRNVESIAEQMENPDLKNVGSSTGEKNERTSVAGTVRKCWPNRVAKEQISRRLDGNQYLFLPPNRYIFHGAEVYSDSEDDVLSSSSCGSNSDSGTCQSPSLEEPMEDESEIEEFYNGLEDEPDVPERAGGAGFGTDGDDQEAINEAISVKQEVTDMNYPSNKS
Experiment: Steady-state kinetic parameters for SIRT1 substrates (PNC1-GDH-coupled assay)
Type: biochemical
Set-up: kc/K1: unit not given here
Conditions: 25° C., pH 7.5, [NAD+]o = 2 mM, [SIRT1]o 50-1,000 nM
Protocol: All peptides were prepared by BioPeptide (San Diego, Calif.) and shown to be at least 95% pure by analytical HPLC analysis. Bovine glutamate dehydrogenase (GDH), α-ketoglutarate, NADH and NAD^+ were from Sigma Chemical Company. Full-length, human SIRT1 and the truncated version used for biophysical studies SIRT1(183-664) were prepared as described previously, and shown to have equivalent kinetic properties (Milne et al. (2007) Nature 450, 712-716). The nicotinamidase PNC1 was prepared as described by Denu and colleagues (Smith et al. (2009) Anal Biochem 394, 101-109).
To determine the interaction of STACs with SIRT1 two kinetic methods were employed. One, which was used for TAMRA-peptide, desTAMRA-peptide, des(biotin,TAMRA)-peptide, and p53-20 mer, used a previously described mass spectroscopic method for detection of peptide reaction products (Milne et al. (2007) Nature 450, 712-716). The other, used with peptides of general structure Ac-Arg-His-Lys-Lys^Ac-X, used a continuous, enzyme-coupled method reported previously (Smith et al. (2009) Anal Biochem 394, 101-109), in which the SRT1 product nicotinamide is first converted into nicotinic acid and ammonia by the action of PNC1, and the ammonia then used by GDH to convert α-ketoglutarate into glutamate. This reaction occurs with oxidation of NADH to NAD^+ which is accompanied by a change in absorbance at 340 nm (Δε340=−6,200 M^−1 cm^−1).
The kinetic experiments used to characterize activators were run on a Perkin Elmer Lambda 25 spectrophotometer equipped with a water-jacketed, eight-cell changer maintained at 25° C. In a typical kinetic experiment, all components of the reaction solution except SIRT1 were added to a 1 mL cuvette and allowed to reach thermal equilibrium. Final concentrations of the coupling system components were: 1 μM PNC1, 0.23 mM NADH, 3.4 mM α-ketoglutarate, and 20 U/mL bovine GDH. This solution also contained peptide substrate, NAD^.0., and activator, at concentrations indicated in the text. The final DMSO concentration was kept constant at 1%, and the buffer used in these experiments was 50 mM HEPES, 150 mM NaCl, pH 7.5. While the system was reaching thermal equilibrium, the absorbance was monitored to provide an accurate estimate of the background rate, which was subtracted from the reaction rate after the addition of SIRT1.
The parameters reported in this table were all determined using the PNC1-GDH-coupled assay. Kinetic parameters for the four 20 mers were also estimated using the mass spectroscopy-based assay first described by Milne et al. ((2007) Nature 450, 712-716) and agree with those reported in Table 3.

In order of falling kc:
1. SKKGQSTSRHKK^AcLJKTEGP [p53-20mer]  0.36 s⁻¹
2. CC(=O)NCCCC[C@H](NC(=O)[C@H](CCCCN)NC(=O)[C@H](Cc1c[nH]cn1)NC(=O)[C@H](CCCNC(=N)N)NC(C)=O)C(=O)N[C@@H](Cc1c[nH]c2ccccc12)C(N)=O [RHKK^AcW, Ac-Arg-His-Lys-Lys^Ac-Trp-NH2] (Ac-RHKK(Ac)W-NH2)  0.19 s⁻¹
3. CC(=O)NCCCC[C@H](NC(=O)[C@H](CCCCN)NC(=O)[C@H](Cc1c[nH]cn1)NC(=O)[C@H](CCCNC(=N)N)NC(C)=O)C(=O)N[C@@H](Cc1ccccc1)C(N)=O [RHKK^AcF, Ac-Arg-His-Lys-Lys^Ac-Phe-NH2] (Ac-RHKK(Ac)F-NH2)  0.16 s⁻¹
4. CC(=O)NCCCC[C@H](NC(=O)[C@H](CCCCN)NC(=O)[C@H](Cc1c[nH]cn1)NC(=O)[C@H](CCCNC(=N)N)NC(C)=O)C(=O)N[C@@H](C)C(N)=O [RHKK^AcA, Ac-Arg-His-Lys-Lys^Ac-Ala] (Ac-RHKK(Ac)A-NH2)  0.15 s⁻¹
5. CC(=O)NCCCC[C@H](NC(=O)[C@H](CCCCN)NC(=O)[C@H](Cc1c[nH]cn1)NC(=O)[C@H](CCCNC(=N)N)NC(C)=O)C(N)=O [RHKK^Ac, Ac-Arg-His-Lys-Lys^Ac-NH2] (Ac-RHKK(Ac)-NH2)  0.14 s⁻¹
6. CC(=O)NCCCC[C@H](NC(=O)[C@H](CCCCN)NC(=O)[C@H](Cc1c[nH]cn1)NC(=O)[C@H](CCCNC(=N)N)NC(C)=O)C(=O)Nc1ccc2c(C)cc(=O)oc2c1 [RHKK^Ac-AMC, Ac-Arg-His-Lys-Lys^Ac-AMC] (Ac-RHKK(Ac)-{AMC})  0.091 s⁻¹
7. EEKGQSTSSHK^AcJSTEGKEE [des(Biotin,TAMRA)-peptide]  0.044 s⁻¹
8. Ac-EEK^(biotin)GQSTSSHSK^AcNle-STEGK^(5-TMR)EE-NH2 [TAMRA-peptide]  0.036 s⁻¹

In order of rising kc/K1:
1. CC(=O)NCCCC[C@H](NC(=O)[C@H](CCCCN)NC(=O)[C@H](Cc1c[nH]cn1)NC(=O)[C@H](CCCNC(=N)N)NC(C)=O)C(=O)Nc1ccc2c(C)cc(=O)oc2c1 [RHKK^Ac-AMC, Ac-Arg-His-Lys-Lys^Ac-AMC] (Ac-RHKK(Ac)-{AMC})  0.8
2. EEKGQSTSSHK^AcJSTEGKEE [des(Biotin,TAMRA)-peptide]  1.1
3. Ac-EEK^(biotin)GQSTSSHSK^AcNle-STEGK^(5-TMR)EE-NH2 [TAMRA-peptide]  4.3
4. CC(=O)NCCCC[C@H](NC(=O)[C@H](CCCCN)NC(=O)[C@H](Cc1c[nH]cn1)NC(=O)[C@H](CCCNC(=N)N)NC(C)=O)C(N)=O [RHKK^Ac, Ac-Arg-His-Lys-Lys^Ac-NH2] (Ac-RHKK(Ac)-NH2)  6.0
5. CC(=O)NCCCC[C@H](NC(=O)[C@H](CCCCN)NC(=O)[C@H](Cc1c[nH]cn1)NC(=O)[C@H](CCCNC(=N)N)NC(C)=O)C(=O)N[C@@H](C)C(N)=O [RHKK^AcA, Ac-Arg-His-Lys-Lys^Ac-Ala] (Ac-RHKK(Ac)A-NH2)  12
6. CC(=O)NCCCC[C@H](NC(=O)[C@H](CCCCN)NC(=O)[C@H](Cc1c[nH]cn1)NC(=O)[C@H](CCCNC(=N)N)NC(C)=O)C(=O)N[C@@H](Cc1ccccc1)C(N)=O [RHKK^AcF, Ac-Arg-His-Lys-Lys^Ac-Phe-NH2] (Ac-RHKK(Ac)F-NH2)  23
7. SKKGQSTSRHKK^AcLJKTEGP [p53-20mer]  42
8. CC(=O)NCCCC[C@H](NC(=O)[C@H](CCCCN)NC(=O)[C@H](Cc1c[nH]cn1)NC(=O)[C@H](CCCNC(=N)N)NC(C)=O)C(=O)N[C@@H](Cc1c[nH]c2ccccc12)C(N)=O [RHKK^AcW, Ac-Arg-His-Lys-Lys^Ac-Trp-NH2] (Ac-RHKK(Ac)W-NH2)  48

In order of falling Km:
1. EEKGQSTSSHK^AcJSTEGKEE [des(Biotin,TAMRA)-peptide]  40 µM
2. SKKGQSTSRHKK^AcLJKTEGP [p53-20mer]  8.5 µM
3. Ac-EEK^(biotin)GQSTSSHSK^AcNle-STEGK^(5-TMR)EE-NH2 [TAMRA-peptide]  8.3 µM

Target: T2, SIRT1(183-664) (Homo sapiens, UniProt Q96EB6)
T2 construct: the truncated version used for biophysical studies SIRT1(183-664); made in house
T2 sequence (Q96EB6 183-664): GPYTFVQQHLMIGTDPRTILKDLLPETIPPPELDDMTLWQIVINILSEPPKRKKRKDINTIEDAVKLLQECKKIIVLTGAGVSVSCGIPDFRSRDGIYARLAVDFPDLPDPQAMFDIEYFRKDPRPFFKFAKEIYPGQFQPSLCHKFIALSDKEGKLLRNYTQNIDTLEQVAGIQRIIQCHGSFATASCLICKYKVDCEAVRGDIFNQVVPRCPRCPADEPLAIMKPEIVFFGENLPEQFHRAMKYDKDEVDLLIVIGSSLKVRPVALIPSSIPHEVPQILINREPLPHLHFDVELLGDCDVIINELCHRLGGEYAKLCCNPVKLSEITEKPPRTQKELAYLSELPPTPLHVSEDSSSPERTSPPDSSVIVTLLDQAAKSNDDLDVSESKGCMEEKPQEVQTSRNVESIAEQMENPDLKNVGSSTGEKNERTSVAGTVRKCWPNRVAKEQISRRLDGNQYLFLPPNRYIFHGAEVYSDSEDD
Experiment: ITC binding of STACs to SIRT1(183-664)
Conditions: dissociation constant of SRT:SIRT1 complex, read-out: Kx (μM), ITC
Protocol: All peptides were prepared by BioPeptide (San Diego, Calif.) and shown to be at least 95% pure by analytical HPLC analysis. Bovine glutamate dehydrogenase (GDH), α-ketoglutarate, NADH and NAD^+ were from Sigma Chemical Company. Full-length, human SIRT1 and the truncated version used for biophysical studies SIRT1(183-664) were prepared as described previously, and shown to have equivalent kinetic properties (Milne et al. (2007) Nature 450, 712-716). The nicotinamidase PNC1 was prepared as described by Denu and colleagues (Smith et al. (2009) Anal Biochem 394, 101-109). ITC experiments were performed using either a VP-ITC system or iTC200 system (MicroCal) at 26° C. in a buffer composed of 137 mM NaCl, 2.7 mM KCl, 1 mM MgCl2, 2 mM TCEP, 5% (v/v) glycerol and 50 mM HEPES-NaOH, pH 7.3. SIRT1(183-664) was purified and dialyzed against the buffer, centrifuged, and degassed before the experiment. The peptide and compounds were dissolved in the final dialysis buffer and their pH values were adjusted to match that of the protein solution. […] To characterize this interaction using the iTC200 system, 1 mM TAMRA-peptide was injected in 20 aliquots of 2 μL, (except the first injection, which was 0.5 μL) into a 0.202 mL sample cell containing 100 μM STAC. For STACs with poor solubility, the concentrations were adjusted accordingly. […] To characterize the interaction of a STAC with SIRT1(183-664) on the VP-ITC system, 100 μM enzyme was injected in 35 aliquots of 8 μL, (except the first injection, which was 2 μL) into a 1.47 mL sample cell containing 10 μM STAC. […] In all cases, data was corrected for the heat of dilution and fitted using a nonlinear least-squares routine using a single-site binding model with Origin for ITC v7.0383 (Microcal) with the stoichiometry (n), the enthalpy of the reaction (ΔH) and the association constant (Ka) calculated.

In order of falling Kd:
1. CCCNc1cc(-c2nc3c(NC(=O)c4ccc(CN5CCNCC5)cc4)cccc3[nH]2)ccn1 [drawing 20]  0.43 µM
2. CN(C)CCCNc1cc(-c2nc3c(NC(=O)c4ccc(CN5CCNCC5)cc4)cccc3[nH]2)ccn1 [drawing 21]  0.32 µM
